Test [1] has as its system OCI-AML5 cells expressing shRNAs targeting CDK1, 2, 4, 7, 9, cyclin K. The experiment in a line: Dose response in OCI-AML5 expressing shRNAs targeting CDK1, 2, 4, 7, 9, cyclin K or control. The format is cell-based, H. sapiens. As to conditions: for IC50: Homo sapiens; for class based on cellular selectivity: IC50 in shRNA OCI-AML5 cells and cyclin KeGFP degradation; for Class: class from shRNA IC50 profile and cyclin K-eGFP degradation.

In another test the test system is cyclin KeGFP. As to the kind of experiment: Cyclin KeGFP reporter system (eGFP/mCherry MFI by flow cytometry).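 Further: 10 μM compound for 3 h relative to DMSO.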 Format: cell-based, H. sapiens. The note with it: cyclin K-eGFP reporter. An outline of the steps: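 OCI-AML5 clone G7 carrying lentiviral cyclin KeGFP/mCherry reporter. eGFP and mCherry geometric MFI measured by flow cytometry; eGFP/mCherry ratio normalized to DMSO-treated cells.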
(A flow cytometer gives signals particle by particle.)

For test [2], the system named is OCI-AML5 cells expressing shRNA targeting CUL4A or CUL4B. The experiment in a line: Dose response in OCI-AML5 expressing shRNAs targeting CUL4A, CUL4B or control. The format is cell-based, H. sapiens. As to conditions: ratio of IC50 in shCUL4A vs shCTRL OCI-AML5 cells.
In the next test the target is T1, CDK9/CyclinT (Homo sapiens, UniProt P50750).
T1 construct: purchased BPS Bioscience 79628
T1 sequence (P50750 whole entry): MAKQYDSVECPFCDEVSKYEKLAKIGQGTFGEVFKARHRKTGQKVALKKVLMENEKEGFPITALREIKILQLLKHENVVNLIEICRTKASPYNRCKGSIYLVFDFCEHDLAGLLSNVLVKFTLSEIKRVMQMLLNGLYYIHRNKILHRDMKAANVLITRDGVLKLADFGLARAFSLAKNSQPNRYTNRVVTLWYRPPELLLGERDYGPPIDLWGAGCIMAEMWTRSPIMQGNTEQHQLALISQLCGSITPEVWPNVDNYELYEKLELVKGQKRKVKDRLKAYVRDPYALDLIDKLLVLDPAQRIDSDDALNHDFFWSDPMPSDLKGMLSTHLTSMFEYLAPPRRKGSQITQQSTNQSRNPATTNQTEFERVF
T1 sequence (O60563 whole entry partner): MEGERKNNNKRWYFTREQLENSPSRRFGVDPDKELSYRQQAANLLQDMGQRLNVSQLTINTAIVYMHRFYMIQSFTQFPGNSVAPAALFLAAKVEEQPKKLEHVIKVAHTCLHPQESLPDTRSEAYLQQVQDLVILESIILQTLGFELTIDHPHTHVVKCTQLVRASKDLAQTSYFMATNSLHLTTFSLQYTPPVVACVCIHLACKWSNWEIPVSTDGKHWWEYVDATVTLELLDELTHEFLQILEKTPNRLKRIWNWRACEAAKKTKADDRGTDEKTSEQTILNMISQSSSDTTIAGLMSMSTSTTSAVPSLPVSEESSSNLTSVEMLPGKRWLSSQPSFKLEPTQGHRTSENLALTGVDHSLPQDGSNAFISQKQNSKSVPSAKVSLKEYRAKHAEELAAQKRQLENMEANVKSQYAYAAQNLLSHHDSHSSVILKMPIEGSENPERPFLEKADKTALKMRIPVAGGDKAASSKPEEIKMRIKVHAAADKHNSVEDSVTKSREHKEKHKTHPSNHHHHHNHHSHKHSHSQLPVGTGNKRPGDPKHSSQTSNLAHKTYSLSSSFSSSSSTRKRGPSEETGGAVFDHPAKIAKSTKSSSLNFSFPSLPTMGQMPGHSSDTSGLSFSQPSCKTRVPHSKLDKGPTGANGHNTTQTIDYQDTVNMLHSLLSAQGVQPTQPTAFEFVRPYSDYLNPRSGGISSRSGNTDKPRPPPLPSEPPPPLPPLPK
The experiment in a line: CDK9/CyclinT in vitro kinase activity, single concentration 1 μM. Format: biochemical. The note with it: single concentration 1 μM. How it is done: (§1) Kinase activity was assessed using the kinase assay kits from BPS Bioscience for CDK1, CDK9 and CDK12 with Kinase Glo MAX in duplicates. Compounds were tested at a single concentration of 1 μM for CDK1 and CDK9 activity, and in a dilution ranging from 0.64 nM to 50 μM for CDK12 activity. Chemiluminescence was read using the Neo Synergy BioTek plate reader.

The target of the next test is T2, CDK1 (Homo sapiens, UniProt P06493).
T2 construct: purchased BPS Bioscience 79597
T2 sequence (P06493 whole entry): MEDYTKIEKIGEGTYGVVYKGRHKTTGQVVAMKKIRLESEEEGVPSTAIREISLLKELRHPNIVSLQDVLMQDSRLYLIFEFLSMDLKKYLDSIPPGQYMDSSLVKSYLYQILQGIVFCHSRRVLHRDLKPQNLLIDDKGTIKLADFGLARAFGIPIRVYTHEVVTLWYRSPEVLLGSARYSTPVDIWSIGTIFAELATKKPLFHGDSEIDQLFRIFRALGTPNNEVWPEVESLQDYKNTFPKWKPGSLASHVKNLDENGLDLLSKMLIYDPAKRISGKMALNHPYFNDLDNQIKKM
T2 sequence (P14635 whole entry partner): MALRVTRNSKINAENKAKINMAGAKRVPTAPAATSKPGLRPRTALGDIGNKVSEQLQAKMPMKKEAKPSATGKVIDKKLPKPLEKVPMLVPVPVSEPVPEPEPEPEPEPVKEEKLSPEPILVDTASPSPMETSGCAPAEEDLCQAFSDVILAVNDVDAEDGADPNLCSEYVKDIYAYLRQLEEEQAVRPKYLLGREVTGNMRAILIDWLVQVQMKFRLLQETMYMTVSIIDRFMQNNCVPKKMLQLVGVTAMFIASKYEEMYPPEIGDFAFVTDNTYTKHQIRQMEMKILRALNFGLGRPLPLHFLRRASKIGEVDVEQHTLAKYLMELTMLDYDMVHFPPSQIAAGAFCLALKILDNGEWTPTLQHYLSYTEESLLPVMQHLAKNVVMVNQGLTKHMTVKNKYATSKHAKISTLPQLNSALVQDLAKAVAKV
The experiment in a line: CDK1 in vitro kinase activity, single concentration 1 μM. Format: biochemical. The note with it: single concentration 1 μM. How it is done: as §1

Another test deals with OCI-AML5 cells. The experiment in a line: Dose-response proliferative assay in OCI-AML5 (4 days, CellTiterGlo). Format: cell-based, H. sapiens. As to conditions: Homo sapiens. An outline of the steps:
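OCI-AML5 cells in αMEM, 10% heat-inactivated FBS plus 10 ng/mL GM-CSF, 300 cells/well, exposed to 8-point 1:4 serial dilutions (10 μM down to 0.5 nM). Viability read after 4 days in culture at 37 °C, 5% CO2.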
(In ATP-based viability assays light output follows the ATP content of the culture.)

In test [3] the target is T3, OCI-AML5 total protein extracts (cyclin K, CDKs, DDB1) (Homo sapiens, UniProt Q96IU4).
T3 construct: endogenous in cells; host or cells: OCI-AML5 total protein extract
T3 sequence (Q96IU4 1-210): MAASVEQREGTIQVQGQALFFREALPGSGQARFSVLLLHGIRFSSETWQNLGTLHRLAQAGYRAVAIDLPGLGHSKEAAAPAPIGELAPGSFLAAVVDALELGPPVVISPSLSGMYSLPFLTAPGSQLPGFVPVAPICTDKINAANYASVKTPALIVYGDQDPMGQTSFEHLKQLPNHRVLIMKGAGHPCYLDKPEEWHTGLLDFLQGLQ
As to the kind of experiment: Pull-down with immobilized probes and quantitative mass spectrometry. Format: binding, H. sapiens. The note with it: protein ABHD14B (Q96IU4). The method, then:
(§2) Probe compounds were immobilized through their terminal amine on NHS-sepharose beads as previously described (Médard et al, [2015]). The prepared beads were then washed in PBS and equilibrated in Triton X-100 buffer. For each replicate, 1–2 mg of total proteins (2 mg/ml) were incubated end-over-end with 25 μl of beads overnight at 4 °C in low protein binding microtubes (Sarstedt). The samples were then washed twice in Triton X-100 buffer, transferred to new microtubes and further washed six times in PBS including another microtube transfer at the last wash. Beads pellets were resuspended in 50 mM ammonium bicarbonate and subjected to reduction, alkylation and tryptic digest as described above. Peptides were separated on an home-made reversed-phase column (150-μm i.d. by 200 mm) with a 56-min gradient from 10 to 30% ACN-0.2% FA and a 600-nl/min flow rate on a Easy nLC-1200 connected to a Exploris 480 (ThermoFisher Scientific, San Jose, CA). Each full MS spectrum acquired at a resolution of 120,000 was followed by tandem-MS (MS-MS) spectra acquisition on the most abundant multiply charged precursor ions for 3 s. Tandem-MS experiments were performed using higher energy collision dissociation (HCD) at a collision energy of 34%. The data were processed using PEAKS X Pro (Bioinformatics Solutions, Waterloo, ON) and a Uniprot human database (20366 entries). Mass tolerances on precursor and fragment ions were 10 ppm and 0.01 Da, respectively. Fixed modification was carbamidomethyl (C). Variable selected posttranslational modifications were acetylation (N-ter), oxidation (M), deamidation (NQ), phosphorylation (STY). The data were visualized with Scaffold 5.0 (protein threshold, 99%, with at least 2 peptides identified and a false-discovery rate [FDR] of 1% for peptides).
(§3) Differential Enrichment analysis of Proteomics data (DEP) package (Zhang et al, [2018]) in R was used to analyze the data (excluding proteins identified based on a single peptide), including data filtering, normalization, imputation of missing values and statistical testing of differentially expressed proteins.

Test [4] deals with T4, OCI-AML5 total protein extracts (cyclin K, CDKs, DDB1) (Homo sapiens, UniProt Q6UXT9).
T4 construct: endogenous in cells; host or cells: OCI-AML5 total protein extract
T4 sequence (Q6UXT9 24-468): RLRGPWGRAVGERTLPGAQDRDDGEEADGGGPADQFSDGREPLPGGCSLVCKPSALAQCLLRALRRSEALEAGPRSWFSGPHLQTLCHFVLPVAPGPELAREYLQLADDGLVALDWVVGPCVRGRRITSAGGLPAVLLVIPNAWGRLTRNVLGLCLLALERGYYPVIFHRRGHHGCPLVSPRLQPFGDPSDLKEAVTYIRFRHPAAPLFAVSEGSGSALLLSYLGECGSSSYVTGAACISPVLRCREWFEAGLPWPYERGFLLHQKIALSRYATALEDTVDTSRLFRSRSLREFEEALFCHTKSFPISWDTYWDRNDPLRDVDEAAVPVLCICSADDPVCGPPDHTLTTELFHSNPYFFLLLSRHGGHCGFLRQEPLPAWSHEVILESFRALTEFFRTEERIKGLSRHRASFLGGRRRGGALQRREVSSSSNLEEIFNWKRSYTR
The test is described as above. The format is binding, H. sapiens. The note with it: protein ABHD15 (Q6UXT9). How it is done: as §2, §3

Test [5] addresses T5, OCI-AML5 total protein extracts (cyclin K, CDKs, DDB1) (Homo sapiens, UniProt P45844).
T5 construct: endogenous in cells; host or cells: OCI-AML5 total protein extract
The description is as above. The format is binding, H. sapiens. The note with it: protein ABCG1 (P45844). How it is done:
as §2, §3

The target of test [6] is T6, OCI-AML5 total protein extracts (cyclin K, CDKs, DDB1) (Homo sapiens, UniProt Q86UQ4).
T6 construct: endogenous in cells; host or cells: OCI-AML5 total protein extract
Described as above. Format: binding, H. sapiens. The note with it: protein ABCA13 (Q86UQ4). The method, then:
as §2, §3

Test [7] deals with T7, OCI-AML5 total protein extracts (cyclin K, CDKs, DDB1) (Homo sapiens, UniProt P21439).
T7 construct: endogenous in cells; host or cells: OCI-AML5 total protein extract
T7 sequence (P21439 whole entry): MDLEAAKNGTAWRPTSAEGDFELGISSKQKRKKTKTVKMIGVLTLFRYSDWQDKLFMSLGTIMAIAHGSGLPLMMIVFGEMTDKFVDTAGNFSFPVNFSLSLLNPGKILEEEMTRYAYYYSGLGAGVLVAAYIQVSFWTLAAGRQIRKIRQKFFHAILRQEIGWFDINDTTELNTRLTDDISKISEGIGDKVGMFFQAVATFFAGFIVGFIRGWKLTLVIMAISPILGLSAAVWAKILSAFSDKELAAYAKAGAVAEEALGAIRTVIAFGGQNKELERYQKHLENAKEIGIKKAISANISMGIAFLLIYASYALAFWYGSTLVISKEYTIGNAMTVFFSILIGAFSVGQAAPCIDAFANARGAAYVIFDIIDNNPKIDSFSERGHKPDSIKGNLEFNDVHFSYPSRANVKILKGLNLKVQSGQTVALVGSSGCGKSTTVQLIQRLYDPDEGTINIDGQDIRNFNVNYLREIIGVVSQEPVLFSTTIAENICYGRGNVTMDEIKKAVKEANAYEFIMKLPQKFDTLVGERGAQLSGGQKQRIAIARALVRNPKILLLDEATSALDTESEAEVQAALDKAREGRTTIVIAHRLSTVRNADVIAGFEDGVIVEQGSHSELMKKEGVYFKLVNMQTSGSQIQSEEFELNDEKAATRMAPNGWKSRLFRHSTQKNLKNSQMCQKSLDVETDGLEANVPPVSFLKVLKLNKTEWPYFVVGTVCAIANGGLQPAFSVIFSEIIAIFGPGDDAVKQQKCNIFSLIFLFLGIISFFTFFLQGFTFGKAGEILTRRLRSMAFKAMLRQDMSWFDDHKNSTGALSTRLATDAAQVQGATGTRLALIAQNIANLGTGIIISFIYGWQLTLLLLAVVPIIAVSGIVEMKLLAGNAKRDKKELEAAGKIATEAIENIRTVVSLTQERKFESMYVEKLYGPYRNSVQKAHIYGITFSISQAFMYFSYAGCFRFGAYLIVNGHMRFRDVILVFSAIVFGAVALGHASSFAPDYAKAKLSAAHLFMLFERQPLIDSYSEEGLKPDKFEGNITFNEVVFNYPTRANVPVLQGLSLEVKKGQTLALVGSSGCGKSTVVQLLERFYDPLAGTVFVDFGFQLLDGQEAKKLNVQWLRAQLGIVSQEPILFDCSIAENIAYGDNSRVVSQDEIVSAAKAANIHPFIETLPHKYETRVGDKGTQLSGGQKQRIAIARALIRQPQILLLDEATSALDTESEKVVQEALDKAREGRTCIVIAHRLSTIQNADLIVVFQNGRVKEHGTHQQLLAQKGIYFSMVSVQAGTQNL
The description is as above. As to conditions: protein ABCB4 (P21439). Format: binding, H. sapiens. How it is done:
as §2, §3

The mark [8] stands for this setting: OCI-AML-5, OCI-AML5 expressing shRNA CCNK (cyclin K), read-out: IC50 shRNA CCNK.
The mark [9] stands for this setting: OCI-AML-5, OCI-AML5 expressing shRNA CDK1, read-out: IC50 shRNA CDK1.
[10] abbreviates: OCI-AML-5, OCI-AML5 expressing shRNA CDK2, read-out: IC50 shRNA CDK2.
Where [11] appears, read: OCI-AML-5, OCI-AML5 expressing shRNA CDK4, read-out: IC50 shRNA CDK4.
The mark [12] stands for this setting: OCI-AML-5, OCI-AML5 expressing shRNA CDK7, read-out: IC50 shRNA CDK7.
Where [13] appears, read: OCI-AML-5, OCI-AML5 expressing shRNA CDK9, read-out: IC50 shRNA CDK9.
[14] abbreviates: OCI-AML-5, OCI-AML5 cells, read-out: IC50 in AML5.

The source of these data is publication PMC12152147, “DDB1 engagement defines the selectivity of S656 analogs for cyclin K degradation over CDK inhibition” (EMBO Reports, 2025).

Where two headings read alike, the source gives them in different places.

Take `O=C(Cc1ccc(N2CCCC2)cc1)Nc1ncc(SCc2cccnc2)s1` [UOM-005608]: the IC50 – broadly, the concentration at which inhibition is half-maximal – in [1] (setting [8]) was 45.2 nM; in test [1] (setting [9]), 160 nM; in test [1] (setting [10]), 180 nM; in [1] (setting [11]), 160 nM; in [1] (setting [12]) it was 170 nM; in test [1] (setting [13]), 125 nM. Besides, the IC50 in the test on OCI-AML5 cells (setting [14]) was found to be 152 nM. Also, the “class based on cellular selectivity” value in test [1] was “Class I (effective cyclin K MGDs (decreased IC50 in cyclin K depleted cells only, and >65% degradation of cyclin KeGFP))”. Further, the Class in test [1] is reported as 1. For the same compound, in the test with cyclin KeGFP, the “% degradation cyclin K-eGFP” value is reported as 77%. Besides, in test [2], the “Ratio shCUL4A/shCTRL” value came to 2.84. Also, the inhibition (in general, how much of the control response was suppressed) at 1 µM came out at 54% on CDK9/CyclinT and 63% on CDK1.
On to `CC(=O)N1CCN(c2ccc(CC(=O)Nc3ncc(SCc4cccnc4)s3)cc2)CC1` [UOM-005614], for which the concentration for half-maximal inhibition (IC50) in test [1] (setting [8]) is 1370 nM; in [1] (setting [9]), 648 nM; in test [1] (setting [10]) it was 1720 nM; in [1] (setting [11]), 2150 nM; in test [1] (setting [12]), 1400 nM; in [1] (setting [13]) it was 743 nM. Besides, in the test with OCI-AML5 cells (setting [14]), the IC50 amounted to 1730 nM. Besides, in test [1], the “class based on cellular selectivity” value is “Class II”. Moreover, the Class in test [1] is listed as 2. Also, the “% degradation cyclin K-eGFP” value in the test with cyclin KeGFP was 0%. The “Ratio shCUL4A/shCTRL” value in [2] stood at 0.67. Besides, the inhibition at 1 µM turned out to be 84% on CDK9/CyclinT and 43% on CDK1.
With `CN(CCOCCOCCN)c1ccc(CC(=O)Nc2nnc(SCc3cccnc3)s2)cc1` [UOM-005839], the UOM-005839_centered in test [3] (centered abundance) is given as 0.505; in [4] (centered abundance), 0.886; in test [5] (centered abundance), -1.3; in test [6] (centered abundance), 0.126; in test [7] (centered abundance), 0.902. Moreover, the UOM-005839_vs_Beads_ratio in test [3] (immobilized probe vs beads) is given as 3.62; in [4] (immobilized probe vs beads) it was 4.56; in test [5] (immobilized probe vs beads), 1.31; in test [6] (immobilized probe vs beads) it was -0.0556; in test [7] (immobilized probe vs beads), -2. Further, the 50% inhibitory concentration (IC50) in the test on OCI-AML5 cells (OCI-AML-5, 96 h, 4 days incubation, read-out: IC50 OCI-AML5) was more than 10000 nM.
